From PMC12820429, “Modulating food intake by nasal application of peptides targeting melanocortin 4 receptor and ghrelin receptor systems” (Brain Communications, 2026) come the findings set out here.

This experiment concerns the target T1, MC4R (Homo sapiens, UniProt P32245).
T1 construct: expressed in transfected cells; host or cells: HEK293 (transient transfection, pcDNA3_MC4R plus CRE-luciferase reporter pGL4.29)
The experiment in a line: cAMP reporter gene assay. The class given is cell-based. The settings on record: normalized to maximal setmelanotide response; n ≥ 2. Background: Reporter assays use an easily measured gene product as a stand-in for the process of interest.

The structures appear in SMILES notation.

T1 sequence (P32245 whole entry, species assumed): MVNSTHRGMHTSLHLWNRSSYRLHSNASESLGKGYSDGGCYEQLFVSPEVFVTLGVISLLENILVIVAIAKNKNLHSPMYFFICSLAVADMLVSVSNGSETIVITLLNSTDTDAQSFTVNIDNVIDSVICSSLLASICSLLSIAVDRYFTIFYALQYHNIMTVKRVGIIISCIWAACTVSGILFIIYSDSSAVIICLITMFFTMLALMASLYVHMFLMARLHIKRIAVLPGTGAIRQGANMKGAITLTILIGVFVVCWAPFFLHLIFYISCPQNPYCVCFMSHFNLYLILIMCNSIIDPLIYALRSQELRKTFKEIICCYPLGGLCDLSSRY
Procedure: HEK293 cells were cultured under standard conditions.[33] Cyclic adenosine monophosphate (cAMP) reporter gene assay was carried out with HEK293 cells transiently transfected with pGL4.29[luc2P/CRE/Hygro] (Promega, Madison, WI, USA) and pcDNA3_MC4R plasmids. For transfection, a master mix consisting of 0.6 µL Lipofectamine (Invitrogen by Thermo Fisher) per 25 µL Opti-MEM (Gibco, Grand Island, NY, USA) per well was preincubated at room temperature for 5 min and then gently mixed with 0.125 µg of both plasmids per 25 µL Opti-MEM per well and incubated for 30 min at room temperature. […] Two hundred microlitres of the mixture was added per well to a white 96-well plate (Greiner Bio-One International GmbH, Kremsmünster, Austria), previously coated with 0.1 mg/mL poly-D-lysine (Sigma-Aldrich) in Dulbecco’s phosphate-buffered saline (DPBS) for 1 h at room temperature. Cells were incubated overnight at humidified atmosphere (37°C, 5% CO2). […] The medium was removed, and cells were starved in 50 μL of DMEM/F12 (1:1) without FBS at humidified atmosphere for 1 h. One millimolar peptide stocks in dimethyl sulfoxide (DMSO, Sigma-Aldrich) were diluted in DMEM/F12 (1:1) to desired concentrations. […] The plate was transferred to a plate reader (Infinite M200, Tecan Trading AG, Männedorf, Switzerland), briefly shaken and incubated 5 min at room temperature. […]

For `CC(=O)N[C@@H](CCCNC(=N)N)C(=O)N[C@H]1CSSC[C@@H](C(N)=O)NC(=O)[C@H](Cc2c[nH]c3ccccc23)NC(=O)[C@H](CCCNC(=N)N)NC(=O)[C@@H](Cc2ccccc2)NC(=O)[C@H](Cc2c[nH]cn2)NC(=O)[C@@H](C)NC1=O` [peptide 1.1, Ac-R^bCaHfRW^bC-NH2], the Emax (as a rule, the size of the effect at its maximum, as opposed to the concentration needed) amounted to 100 ± 4%.
